In patent publication US20040121965A1, “Method of treating resistant tumors” (Wyeth Holdings Corporation, priority 2002, published 2004):
Where two headings read alike, the source gives them in different places. Marks after values point to notes of the source that are not given here.

Key:
[1] = system: Human Epidermoid Carcinoma KB-3-1; experiment: Growth of tumors in nude mice, KB-3-1 xenograft; format: in vivo; details: KB-3-1; vincristine 1 mg/kg IP, days 1,5,9
Procedure: (§1) 2.4. Growth of Tumors in Nude Mice.
In these experiments, xenografts are implanted subcutaneously into the flanks of nude mice. […] Relative tumor mass compared to controls are assessed during the 21-day post-staging period.
(§2) Groups of 5 female nu/nu mice are injected with 1.5×10^6 KB-3-1 (A) or Lox cells (B). […] Relative tumor growth is determined during the experiment and % T/C calculated. Statistical analyses are Student's t-test of treated time points vs. vehicle (*, P<0.05; **, P<0.01)

[2] = system: Human Melanoma Carcinoma Lox
Procedure: 2.4. Growth of Tumors in Nude Mice. […] In these experiments, xenografts are implanted subcutaneously into the flanks of nude mice. […] Relative tumor mass compared to controls are assessed during the 21-day post-staging period.
as §2

KB-8.5 tumor = experiment: Growth of tumors in nude mice, KB-8-5 xenograft; format: in vivo; details: vincristine 1 mg/kg IP, days 1,5,9
Excerpt: as §1

DLD-1 tumor = experiment: Growth of tumors in nude mice, DLD-1 xenograft; format: in vivo; details: vincristine 1 mg/kg IP, days 1,5,9
Excerpt: as §1

MX-1W tumor = experiment: Growth of tumors in nude mice, MX-1W xenograft; format: in vivo
Excerpt: as §1

HCT-15 tumor = experiment: Growth of tumors in nude mice, HCT-15 xenograft; format: in vivo; details: vincristine 1 mg/kg IP, days 1,5,9
Excerpt: as §1

[3] = system: human carcinoma xenografts; experiment: Growth of tumors in nude mice, several xenograft models and tolerated dose; format: in vivo; details: DLD-1, MX-1W or HCT-15 tumors; at or near the MTD
Excerpt: as §1

tumor cell lines = experiment: cells; format: cell-based; details: HL60/AR (MRP1) or S1-M1-3.2 (MXR)
Excerpt: (§3) Cells lines with previously known mechanisms of resistance. […] Res. 8: 207-218,1996); KB-3-1 (parental derived from an epidermoid carcinoma), KB-8.5, KB-V1 (Akiyama S-I, Fojo A, Hanover J A, Pastan I, Gottesman M M. Isolation and genetic characterization of human KB cell lines resistant to multiple drugs. Somatic Cell Mol. Gen., 11: 117-126,1985; Shen D-W, Cardarelli C, Hwang J, Cornwell M, Richert N, Ishii S, Pastan I, Gottesman MM. […] J. Biol. Chem., 261: 7762-7770, 1986); and HL-60 (parental derived from human leukemia) and HL60/AR (McGrath T., Center M. S. Adriamycin resistance in HL60 cells in the absence of detectable P-glycoprotein. Biochem. Res. Commun., 145:1171-1176,1987); A549 and A549.EpoB40 (He L., Yang C.-P.H., Horwitz S. B. Mutations in p-tubulin map to domains involved in regulation of microtubule stability in epothilone-resistant cell lines. Molecular Cancer Therapeutics. 1: 3-10, 2001). HCT-15 human colon carcinoma and DLD-1 human colon carcinoma are obtained from American Tissue Culture Collection. The MX-1W carcinoma is a Wyeth variant orginally obtained as MX-1 breast carcinoma from the National Cancer Institute. Cell lines selected for resistance to Representative Example 129. KB-3-1 cells are selected for resistance to Example 129 by chronically exposing cells to increasing concentrations of Example 129.
(§4) 2.2. Cell Survival Assay: Standard Pharmacological Test Procedure. The concentration of candidate inhibitor required to inhibit 50% of cell growth (IC50) is done according to previously reported methods. […] Compounds are serially diluted into media as 2× stocks and 100 μl added to cells in duplicate. Compounds are incubated with cells for 3 days. At the end of the incubation period the sulforhodamine B (SRB) assay, which measures protein content as an assessment of cell survival, is performed as described previously (Skehan P, Storeng R, Scudiero D, Monks A, McMahon J, Vistica D, Warren J T, Bokesch H, Kenney S, Boyd MR. New calorimetric cytotoxicity assay for anticancer-drug screening. J Natl Cancer Inst 1990 Jul 4;82(13):1107-12) with some modification as follows. For KB-3-1 cells with 20% FCS, media is gently decanted and replaced with 200 μl of serum-free media mixed with cold 50% TCA for a final concentration of 10% TCA. The plates are incubated for 1 hr at 4° C., followed by washing 5 times in cold distilled water, then air dried overnight. The fixed cells are stained for 10 min with 80 μl of 0.04% SRB solution prepared in 1% glacial acetic acid. Stain is discarded and plates washed 5 times in 1% glacial acetic acid, then air-dried until completely dry. Stained cell product is dissolved in 150 μl of 10 mM Trizma Base and placed on a shaker for 20 minutes until fully dissolved. Absorbance is read on a Victor V multi-label plate reader (Perkin Elmer, Gaithersburg, Md.).

S1 = experiment: Cell survival assay (SRB), S1; format: cell-based; details: Homo sapiens; S1 parental; Table 5; read-out: S1 IC50, nM (N)
Excerpt: as §3, §4

KB-3-1 = experiment: Cell survival assay (SRB), KB-3-1; format: cell-based, human; details: Homo sapiens
Summary of the method: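 Cells were exposed in duplicate to serially diluted compound for 3 days, then fixed with 10% TCA (final) for 1 hr at 4 °C, stained 10 min with 0.04% SRB in 1% acetic acid, dissolved in 10 mM Trizma Base and read by absorbance. IC50 is the concentration inhibiting 50% of growth.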

HL60 = experiment: Cell survival assay (MTS), HL60; format: cell-based; details: Homo sapiens, HL-60; HL60 parental; Table 5; read-out: HL60 IC50, nM (N)
HL60/AR (MRP1) = experiment: Cell survival assay, HL60/AR (MRP1)
Excerpt: as §3, §4
(§5) J. Cell Science,113: 2011-2021, 2000). It was unknown whether the hemiasterlin family of peptides interact with these drug pumps.

S1-M1-3.2 (MXR) = experiment: Cell survival assay, S1-M1-3.2 (MXR); format: cell-based, human
Excerpt: as §3, §4, §5

KB-PTX-15+099 = experiment: Cell survival assay, KB-PTX-15+099 (paclitaxel-resistant, non-MDR); format: cell-based, human
KB-HTI-4.0 = experiment: Cell survival assay, KB-3-1 line made resistant to Example 129 (KB-HTI-4.0); format: cell-based, human
A549.EpoB40 = format: cell-based; details: vs A549; below 1 = sensitive
Excerpt: as §3
as §4, with “Stained cell product is dissolved in 150 μl of 10 mM Trizma Base and placed on a shaker for 20 minutes until fully dissolved.” left out

KB-8-5 (MDR1+) = experiment: Cell survival assay (SRB), KB-8-5 (MDR1+)
KB-V1 (MDR1++) = experiment: Cell survival assay (SRB), KB-V1 (MDR1++); details: Table 3
[4] = Lox, vincristine 1 mg/kg IP, days 1,5,9
[5] = MX-1W, vincristine 1 mg/kg IP, days 1,5,9

Compound: CC[C@]1(O)C[C@H]2CN(CCc3c([nH]c4ccccc34)[C@@](C(=O)OC)(c3cc4c(cc3OC)N(C=O)[C@H]3[C@@](O)(C(=O)OC)[C@H](OC(C)=O)[C@]5(CC)C=CCN6CC[C@]43[C@@H]65)C2)C1 [vincristine]
- % T/C on day 7 [1]: 15** %
- % T/C on day 14 [1]: 12** %
- % T/C on day 21 [1]: 17** %
- % T/C on day 7 [2, 4]: 13** %
- % T/C on day 12 [2, 4]: 3** %
- % T/C on day 6 (KB-8.5 tumor): 71%
- % T/C on day 14 (KB-8.5 tumor): 85%
- % T/C on day 21 (KB-8.5 tumor): 81%
- % T/C on day 7 (DLD-1 tumor): 113%
- % T/C on day 14 (DLD-1 tumor): 119%
- % T/C on day 21 (DLD-1 tumor): 177%
- % T/C on day 7 (MX-1W tumor; [5]): 65%
- % T/C on day 14 (MX-1W tumor; [5]): 61%
- % T/C on day 9 (HCT-15 tumor): 91%
- % T/C on day 13 (HCT-15 tumor): 81%
- % T/C on day 17 (HCT-15 tumor): 95%
- % T/C on day 21 (HCT-15 tumor): 107%
- response of tumors [3]: no response

Compound: CC[C@]1(O)C[C@@H]2CN(CCc3c([nH]c4ccccc34)[C@@](C(=O)OC)(c3cc4c(cc3OC)N(C)[C@H]3[C@@](O)(C(=O)OC)[C@H](OC(C)=O)[C@]5(CC)C=CCN6CC[C@]43[C@@H]65)C2)C1 [vinblastine]
- resistance detected in cells over-expressing MRP1 or MXR (tumor cell lines): no resistance
- IC50 (S1): 6.5 nM
- IC50 (KB-3-1; KB 3-1, 72 h, amount of drug needed to kill 50% of cells after three days continuous exposure, Table 11, read-out: IC50 in parental cell line KB-3-1): 0.8 nM
- IC50 (KB-3-1; KB 3-1, KB-3-1, Table 6, read-out: KB-3-1 IC50): 0.703 ± 0.097 nM
- IC50 (KB-3-1; KB 3-1, KB-3-1 parental, Table 3, read-out: KB-3-1 IC50, nM (N)): 0.79 ± 0.5 nM
- IC50 (KB-3-1; KB 3-1, KB-3-1 parental, Table 8, read-out: KB-3-1 IC50): 0.73 ± 0.03 nM
- IC50 (HL60): 0.5 nM
- IC50 (HL60/AR (MRP1); Homo sapiens, HL-60/AR, read-out: HL60/AR (MRP1) IC50, nM (N)): 2 nM
- RR, relative resistance (HL60/AR (MRP1); IC50 HL60/AR / IC50 HL60): 3.7
- IC50 (S1-M1-3.2 (MXR); Homo sapiens, S1-M1-3.2, MXR over-expression, Table 5, read-out: S1-M1-3.2 (MXR) IC50, nM (N)): 12.7 nM
- RR, relative resistance (S1-M1-3.2 (MXR); IC50 S1-M1-3.2 / IC50 S1): 1.9
- IC50 (KB-PTX-15+099; Homo sapiens, KB-PTX-15+099, Table 6, read-out: KB-PTX-15+099 IC50): 0.192 ± 0.022 nM
- Average Relative Resistance (RR) (KB-PTX-15+099; IC50 KB-PTX-15+099 / IC50 KB-3-1, less than 1 = increased sensitivity): (0.27)
- increased sensitivity of KB-PTX-15+099 cells (KB-PTX-15+099; vs KB-3-1): 3.7 fold
- (RR) relative resistance vs. parental cells (KB-HTI-4.0): (9)
- IC50 (KB-HTI-4.0; Homo sapiens, KB-3-1 line made resistant to Example 129, Table 8, read-out: KB-HTI-4.0 IC50): 6.19 ± 1.26 nM
- resistance of KB-3-1-derived cell lines selected with Example 129 (KB-HTI-4.0; vs KB-3-1): 9 fold
- resistance of A549.EpoB40 cells (A549.EpoB40): 0.2 fold
- Activity in nude mice animal model (% T/C @ MTD on days 11-15) LOX ([2]; staged LOX xenograft, at MTD ('<': MTD not achieved), days 11-15): 9%
- Activity in nude mice animal model (% T/C @ MTD on days 11-15) MX-1W (MX-1W tumor; staged MX-1W xenograft, at MTD, days 11-15): 64%
- IC50 (KB-8-5 (MDR1+); Homo sapiens, MDR1, read-out: KB-8-5 (MDR1+) IC50, nM (N), KB-8-5, moderate MDR1 expression, Table 3): 29.2 ± 22 nM
- RR, relative resistance (KB-8-5 (MDR1+); IC50 KB-8-5 / IC50 KB-3-1, Table 3): 37
- resistance of KB-8-5 cells (KB-8-5 (MDR1+); KB-8-5 (KB-85) vs KB-3-1, in vitro): 37 fold
- IC50 (KB-V1 (MDR1++); Homo sapiens, read-out: KB-V1 (MDR1++) IC50, nM (N), KB-V1, high MDR1 expression): 1460 ± 1020 nM
- RR, relative resistance (KB-V1 (MDR1++); IC50 KB-V1 / IC50 KB-3-1): 1848
